This assay addresses GLP-1R (Homo sapiens, UniProt P43220). The experiment in a line: GLP-1R Activation - cAMP Assay. The format is cell-based. Conditions: cAMP increase in CHO cells stably expressing GLP-1R; each compound run on one of the two cAMP assays (Assay 1 or Assay 2, not specified). In short, it runs like this:
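cAMP rise read by HTRF after 30 min agonist exposure (10-point titration, 37 °C) in HBSS/20 mM Hepes/0.1% BSA, following 1 h pre-incubation. Cells: stable GLP-1R CHO line, 1,000/well, seeded overnight. Sigmoidal fit of response vs log concentration gives EC50.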
(In general: cAMP levels reflect the balance of adenylyl cyclase and phosphodiesterase activity.)

GLP-1R, sequence (P43220 24-463): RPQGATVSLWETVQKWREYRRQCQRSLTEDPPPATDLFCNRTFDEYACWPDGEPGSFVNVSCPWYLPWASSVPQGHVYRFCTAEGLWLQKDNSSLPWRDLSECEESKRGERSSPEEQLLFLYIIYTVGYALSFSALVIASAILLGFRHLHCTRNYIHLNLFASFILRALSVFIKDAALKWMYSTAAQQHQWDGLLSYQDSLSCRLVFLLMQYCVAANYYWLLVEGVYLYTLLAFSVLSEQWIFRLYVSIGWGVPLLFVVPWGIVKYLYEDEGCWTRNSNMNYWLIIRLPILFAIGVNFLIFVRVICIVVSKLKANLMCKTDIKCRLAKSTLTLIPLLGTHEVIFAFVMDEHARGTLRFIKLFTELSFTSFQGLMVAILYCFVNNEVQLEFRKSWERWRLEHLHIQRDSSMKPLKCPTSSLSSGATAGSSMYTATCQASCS

In turn, `CC1(C)COC[C@H]1n1c(Cc2c(F)cc(-c3ccc(F)c(OCc4ccc(C#N)cc4F)n3)c(F)c2F)nc2c(F)cc(C(=O)O)cc21` [Example 479, (S)-2-(4-(6-((4-cyano-2-fluorobenzyl)oxy)-5-fluoropyridin-2-yl)-2,3,6-trifluorobenzyl)-1-(4,4-dimethyltetrahydrofuran-3-yl)-4-fluoro-1H-benzo[d]imidazole-6-carboxylic acid] yielded a 50% effective concentration (EC50) of 0.249 nM.

Consider `CC1(C)COC[C@H]1n1c(Cc2cc(F)c(-c3nc(OCc4ccc(C#N)cc4F)ccc3F)cc2F)nc2c(F)cc(C(=O)O)cc21` [Example 365, (S)-2-(4-(6-((4-cyano-2-fluorobenzyl)oxy)-3-fluoropyridin-2-yl)-2,5-difluorobenzyl)-1-(4,4-dimethyltetrahydrofuran-3-yl)-4-fluoro-1H-benzo[d]imidazole-6-carboxylic acid], for which the midpoint of the response, the EC50, lay at 0.124 nM.

Molecule `COCCn1c(Cc2cc(F)c(-c3cccc(OCc4cnc(-n5ccnn5)cc4Cl)n3)cc2F)nc2ccc(C(=O)O)cc21` [Example 214, 2-(4-(6-((4-chloro-6-(1H-1,2,3-triazol-1-yl)pyridin-3-yl)methoxy)pyridin-2-yl)-2,5-difluorobenzyl)-1-(2-methoxyethyl)-1H-benzo[d]imidazole-6-carboxylic acid] yielded an EC50 of 0.299 nM.

Take `CC1(C)COC[C@H]1n1c(Cc2cc(F)c(-c3cccc(OCc4ccc5c(c4)CN(S(C)(=O)=O)C5)n3)cc2F)nc2c(F)cc(C(=O)O)cc21` [Example 240, (S)-2-(2,5-difluoro-4-(6-((2-(methylsulfonyl)isoindolin-5-yl)methoxy)pyridin-2-yl)benzyl)-1-(4,4-dimethyltetrahydrofuran-3-yl)-4-fluoro-1H-benzo[d]imidazole-6-carboxylic acid]: a half-maximal response (EC50) required 0.127 nM.

As to `COCCn1c(Cc2cc(F)c(-c3cccc(OCc4ccc(C#N)cc4)n3)cc2F)nc2ccc(C(=O)O)cc21` [Example 511, 2-(4-(6-((4-cyanobenzyl)oxy)pyridin-2-yl)-2,5-difluorobenzyl)-1-(2-methoxyethyl)-1H-benzo[d]imidazole-6-carboxylic acid], the EC50 amounted to 0.588 nM.

Consider `COC[C@H]1COC[C@H]1n1c(Cc2cc(F)c(-c3cccc(OCc4ccc(C#N)cc4F)n3)cc2F)nc2ccc(C(=O)O)cc21` (single isomer, unassigned) [Example 176A], for which the EC50 turned out to be 0.085 nM.

For `COCCn1c(Cc2cc(F)c(-c3cccc(OCc4ccc(-c5cn(C)nn5)cc4F)n3)cc2F)nc2ccc(C(=O)O)cc21` [Example 99, 2-(2,5-difluoro-4-(6-((2-fluoro-4-(1-methyl-1H-1,2,3-triazol-4-yl)benzyl)oxy)pyridin-2-yl)benzyl)-1-(2-methoxyethyl)-1H-benzo[d]imidazole-6-carboxylic Acid], it took 0.6 nM to reach a half-maximal effect (EC50).

Turning to `Cc1cc(Cc2nc3ccc(C(=O)O)cc3n2[C@@H]2COCC2(C)C)c(Cl)cc1-c1cccc(OCc2ccc(C#N)cc2F)n1` [Example 141, (S)-2-(2-chloro-4-(6-((4-cyano-2-fluorobenzyl)oxy)pyridin-2-yl)-5-methylbenzyl)-1-(4,4-dimethyltetrahydrofuran-3-yl)-1H-benzo[d]imidazole-6-carboxylic Acid], the EC50 stood at 0.079 nM.

Molecule `CC1(C)COCC1n1c(Cc2cc(F)c(-c3nccc(OCc4ccc(Cl)cc4F)n3)cc2F)nc2c(F)cc(C(=O)O)cc21` (stereo not shown) [Example 348, 2-(4-(4-((4-chloro-2-fluorobenzyl)oxy)pyrimidin-2-yl)-2,5-difluorobenzyl)-1-(4,4-dimethyltetrahydrofuran-3-yl)-4-fluoro-1H-benzo[d]imidazole-6-carboxylic acid] displayed a 50% effective concentration (EC50) of 0.55 nM.

For the molecule `Cc1cc(Cc2nc3ccc(C(=O)O)cc3n2[C@@H]2COCC2(C)C)c(F)cc1-c1cccc(OCc2ccc(Cl)cc2F)n1` [Example 280, (S)-2-(4-(6-((4-chloro-2-fluorobenzyl)oxy)pyridin-2-yl)-2-fluoro-5-methylbenzyl)-1-(4,4-dimethyltetrahydrofuran-3-yl)-1H-benzo[d]imidazole-6-carboxylic acid], a half-maximal effect (EC50) was put at 0.165 nM.

Regarding `COCCn1c(Cc2cc(F)c(-c3cccc(OCc4ncc(C#N)cc4F)n3)cc2F)nc2ccc(C(=O)O)cc21` [Example 39], the EC50 was determined as 8.98 nM.

As for `C[C@H]1COC[C@H]1n1c(Cc2cc(F)c(-c3ccc(F)c(OCc4ccc(C#N)cc4)n3)cc2F)nc2ccc(C(=O)O)cc21` [Example 480, 2-(4-(6-((4-cyanobenzyl)oxy)-5-fluoropyridin-2-yl)-2,5-difluorobenzyl)-1-((3S,4R)-4-methyltetrahydrofuran-3-yl)-1H-benzo[d]imidazole-6-carboxylic acid], the EC50 was 0.223 nM.

For `CC1(C)COC[C@H]1n1c(Cc2cc(F)c(-c3cccc(OCc4ccc(C#N)cc4)n3)cc2F)nc2ccc(C(=O)O)nc21` [Example 440, (S)-2-(4-(6-((4-cyanobenzyl)oxy)pyridin-2-yl)-2,5-difluorobenzyl)-3-(4,4-dimethyltetrahydrofuran-3-yl)-3H-imidazo[4,5-b]pyridine-5-carboxylic acid], the EC50 came to 0.956 nM.

`N#Cc1ccc(COc2nc(-c3cc(F)c(Cc4nc5c(F)cc(C(=O)O)cc5n4C4COCC45CC5)cc3F)ccc2F)c(F)c1` (stereo not shown) [Example 224, 2-(4-(6-((4-cyano-2-fluorobenzyl)oxy)-5-fluoropyridin-2-yl)-2,5-difluorobenzyl)-4-fluoro-1-(5-oxaspiro[2.4]heptan-7-yl)-1H-benzo[d]imidazole-6-carboxylic acid] yielded an EC50 of 0.515 nM.

In turn, `CC1(C)COC[C@H]1n1c(Cc2cc(F)c(-c3cc(C(F)F)cc(OCc4ccc(Cl)cc4F)n3)cc2F)nc2ccc(C(=O)O)cc21` [Example 447, (S)-2-(4-(6-((4-chloro-2-fluorobenzyl)oxy)-4-(difluoromethyl)pyridin-2-yl)-2,5-difluorobenzyl)-1-(4,4-dimethyltetrahydrofuran-3-yl)-1H-benzo[d]imidazole-6-carboxylic acid] had an EC50 of 1.39 nM.

As to `COCCn1c(Cc2cc(F)c(-c3cccc(OCc4ncc(Br)cc4F)n3)cc2F)nc2ccc(C(=O)O)cc21` [Example 23], the response was half-maximal at 4.57 nM (EC50).

As to `COCCn1c(Cc2ccc(-c3ccc(F)c(OCc4cnc(-n5ccnn5)cc4Cl)n3)cc2F)nc2ccc(C(=O)O)cc21` [Example 155, 2-(4-(6-((4-chloro-6-(1H-1,2,3-triazol-1-yl)pyridin-3-yl)methoxy)-5-fluoropyridin-2-yl)-2-fluorobenzyl)-1-(2-methoxyethyl)-1H-benzo[d]imidazole-6-carboxylic Acid], the EC50 amounted to 0.416 nM.

In turn, `Cn1nncc1-c1ccc(COc2cccc(-c3cc(F)c(Cc4nc5ccc(C(=O)O)cc5n4[C@@H]4COCC4(C)C)cc3F)n2)c(F)c1` [Example 554, (S)-2-(2,5-difluoro-4-(6-((2-fluoro-4-(1-methyl-1H-1,2,3-triazol-5-yl)benzyl)oxy)pyridin-2-yl)benzyl)-1-(4,4-dimethyltetrahydrofuran-3-yl)-1H-benzo[d]imidazole-6-carboxylic acid] had an EC50 of 0.026 nM.

In turn, `Cc1cc(Cc2nc3ccc(C(=O)O)cc3n2[C@@H]2COCC2(C)C)c(F)cc1-c1cccc(OCc2ccc(C#N)cc2)n1` [Example 179, (S)-2-(4-(6-((4-cyanobenzyl)oxy)pyridin-2-yl)-2-fluoro-5-methylbenzyl)-1-(4,4-dimethyltetrahydrofuran-3-yl)-1H-benzo[d]imidazole-6-carboxylic Acid] showed an EC50 of 0.064 nM.

As for `Cn1nnc2ccc(COc3cccc(-c4cc(F)c(Cc5nc6ccc(C(=O)O)cc6n5[C@@H]5COCC5(C)C)cc4F)n3)cc21` [Example 513, (S)-2-(2,5-difluoro-4-(6-((1-methyl-1H-benzo[d][1,2,3]triazol-6-yl)methoxy)pyridin-2-yl)benzyl)-1-(4,4-dimethyltetrahydrofuran-3-yl)-1H-benzo[d]imidazole-6-carboxylic acid], the EC50 amounted to 0.208 nM.

On to `COCCn1c(Cc2c(F)cc(-c3cccc(OCc4ccc(-n5ccnn5)cc4)n3)c(F)c2F)nc2c(F)cc(C(=O)O)cc21` [Example 222, 2-(4-(6-((4-(1H-1,2,3-triazol-1-yl)benzyl)oxy)pyridin-2-yl)-2,3,6-trifluorobenzyl)-4-fluoro-1-(2-methoxyethyl)-1H-benzo[d]imidazole-6-carboxylic acid], for which the EC50 amounted to 0.136 nM.

For the molecule `COCCn1c(Cc2cc(F)c(-c3cc(C(F)F)cc(OCc4ccc(C#N)cc4F)n3)cc2F)nc2ccc(C(=O)O)cc21` [Example 41], a half-maximal effect (EC50) was put at 4.88 nM.

With `CC1(C)COC[C@H]1n1c(Cc2cc(F)c(-c3ccc(F)c(OCc4ccc(C#N)cc4)n3)cc2F)nc2c(F)cc(C(=O)O)cc21` [Example 325, (S)-2-(4-(6-((4-cyanobenzyl)oxy)-5-fluoropyridin-2-yl)-2,5-difluorobenzyl)-1-(4,4-dimethyltetrahydrofuran-3-yl)-4-fluoro-1H-benzo[d]imidazole-6-carboxylic acid], the EC50 was determined as 0.155 nM.

As to `CC1(C)COC[C@H]1n1c(Cc2c(F)cc(-c3ccc(F)c(OCc4cnc(-n5ccnn5)cc4Cl)n3)c(F)c2F)nc2ccc(C(=O)O)cc21` [Example 159, (S)-2-(4-(6-((4-chloro-6-(1H-1,2,3-triazol-1-yl)pyridin-3-yl)methoxy)-5-fluoropyridin-2-yl)-2,3,6-trifluorobenzyl)-1-(4,4-dimethyltetrahydrofuran-3-yl)-1H-benzo[d]imidazole-6-carboxylic Acid], the EC50 is 0.043 nM.

`COCCn1c(Cc2cc(F)c(-c3cccc(OCc4ccc(C(C)(F)F)cc4)n3)cc2F)nc2ccc(C(=O)O)cc21` [Example 96, 2-(4-(6-((4-(1,1-difluoroethyl)benzyl)oxy)pyridin-2-yl)-2,5-difluorobenzyl)-1-(2-methoxyethyl)-1H-benzo[d]imidazole-6-carboxylic Acid] registered an EC50 of 0.98 nM.

The term EC50 denotes the concentration at which the effect is half-maximal. A higher EC50 goes with weaker potency.

The values are drawn from US12570642B2, “GLP-IR modulating compounds” (Gilead Sciences, Inc., priority 2021, dated 2026).
